Drawing on ChEMBL document CHEMBL1157539, “Thousands of chemical starting points for antimalarial lead identification” (Nature, 2010), this text covers XC50 for 64 molecules.

The subject of the assay is Plasmodium falciparum. Kind of assay: GSK_TCMDC: Inhibition of Plasmodium falciparum 3D7 in whole erythrocytes, using parasite LDH activity as an index of growth. The assay is classed as functional, organism-based. The note with it: Plasmodium falciparum, 3D7.
`COc1ccc2[nH]c3ccccc3c(=O)c2c1` displayed an XC50 of 1000 nM.

`COc1cc(Cc2cnc(N)nc2N)cc(OCC(C)(C)C(=O)O)c1OC` registered an XC50 of 1110 nM.

Take `CN1CCN(c2ccnc3cc4ccccc4cc23)CC1`: the XC50 was found to be 947 nM.

The molecule `c1cncc(CN2CCCN(c3ccc4c(c3)CCN(Cc3ccc(-c5ncc[nH]5)cc3)CC4)CC2)c1` came in with an XC50 of 747 nM.

In the case of `CN(C)c1cccc(CN2CC=C(c3c[nH]c4ccc(Cl)cc34)CC2)c1`, the XC50 came to 663 nM.

As for `Cc1cccc2nc(-c3cccc(-c4ccc(C(=O)N5CCCCC5C(C)O)cc4)c3)[nH]c12` (centres undefined), the XC50 was found to be 371 nM.

For `O=C(Nc1ccc(F)c(Cl)c1)c1cc([N+](=O)[O-])cc2cn[nH]c12`, the XC50 was determined as 315 nM.

As to `CCOc1cc(C(=O)Nc2ccc3nc(N4CCCCC4)cc(C)c3c2)cc(OCC)c1OCC`, the XC50 worked out at 825 nM.

`COc1ccc2[nH]ccc(=NN=Cc3cccc(C)n3)c2c1`: the XC50 amounted to 764 nM.

With `Cc1cccc2nc(O)c([N+](=O)[O-])c(O)c12`, the XC50 turned out to be 911 nM.

Molecule `C=CCn1ccc2c3c(N)nc(N)nc3ccc21` showed an XC50 of 70 nM.

Molecule `COc1ccc(CNCc2ccc(-c3cccc(-c4nc5ccccc5[nH]4)c3)cc2)cc1` gave an XC50 of 214 nM.

With `O=C(O)c1ccc2c(c1)N(C(=O)CNCc1ccc(F)cc1)CC(=O)N2CCCc1ccccc1`, the XC50 turned out to be 919 nM.

Molecule `Cn1ccc(C(=O)Nc2ccc3c(c2)CN(Cc2ccc(N4CCCC4)o2)CCC3)n1` gave an XC50 of 1310 nM.

Regarding `O=C(Nc1ccc(C(F)(F)F)cc1)Nc1cccc([N+](=O)[O-])c1`, the XC50 was 865 nM.

As for `COc1cccc(-c2cccc(-c3ccc(NC(=O)c4ccc([N+](=O)[O-])o4)cc3)n2)c1`, the XC50 was found to be 515 nM.

With `COc1ccccc1Nc1nc(NC2CCN(C)CC2)cc(-c2cccc(C(F)(F)F)c2)n1`, the XC50 was 919 nM.

Molecule `CS(=O)(=O)c1ccc(CNCc2cccc(-c3ccc(-c4nc5cc(C(F)(F)F)ccc5[nH]4)cc3)c2)cc1` had an XC50 of 513 nM.

Molecule `COc1ccc(C(C(=O)NC2CCN(C[C@H](O)c3ccnc4ccc(OC)cc34)CC2)N2CCc3ccccc3C2)cc1` (some centres undefined) came in with an XC50 of 697 nM.

Molecule `CC(C)CC(=O)N1CCNC[C@@H]1C(=O)NC1CC1` came in with an XC50 of 1090 nM.

For `Cc1cccc2nc(-c3ccc(-c4ccc(CNCc5cccc(N)c5)cc4)s3)[nH]c12`, the XC50 came out at 751 nM.

`CCC(C)(C)NC(C)C(O)c1ccc(C(F)(F)F)cc1` (centres undefined): the XC50 was determined as 750 nM.

Molecule `CN1CCC(Oc2ccc(Nc3nccc(NCC(O)c4ccccc4)n3)cc2Cl)CC1` (centres undefined) registered an XC50 of 785 nM.

Turning to `CN1CCC(C(=O)N(Cc2ccc(-c3ccc(CNCCc4ccccc4)cn3)cc2)Cc2cccc(F)c2)CC1`, the XC50 amounted to 935 nM.

`CN1CCN(CCCN(Cc2cccc(-c3ccc(CNCCc4ccccc4)cc3)c2)C(=O)Nc2ccccc2)CC1` yielded an XC50 of 834 nM.

`O=C(/C=C/c1ccc(Cl)c(Cl)c1)NCCCCCN1C2CCC1CC(c1c[nH]c3ccccc13)C2` (centres undefined): the XC50 amounted to 840 nM.

The molecule `OCC1CCN(Cc2cccc(-c3ccc(-c4nc5cc(C(F)(F)F)ccc5[nH]4)cc3)c2)CC1` displayed an XC50 of 662 nM.

Regarding `Cc1ccc(Nc2nc3cc(Nc4ccnc(Nc5cccc(CS(C)(=O)=O)c5)n4)ccc3o2)cc1`, the XC50 was found to be 923 nM.

Molecule `CCOc1cc(NCCCNc2ncc([N+](=O)[O-])cc2C)nc2ccccc12` gave an XC50 of 692 nM.

The molecule `Cc1onc(-c2ccccc2Cl)c1C(=O)Nc1cc(Cl)c(Cl)cc1Cl` came in with an XC50 of 1180 nM.

`Oc1ccc(CCNc2nc(NCc3cccc(-c4cc(C(F)(F)F)ccc4Cl)c3)nc(N3CCNCC3)n2)cc1` yielded an XC50 of 1780 nM.

For the molecule `CN1CCN(c2nsc3ccc(-c4ccc(NC(=O)Nc5ccccc5)cc4)cc23)CC1`, the XC50 stood at 180 nM.

Molecule `COC(=O)c1ccc(CC(C)NCC(O)c2cccc(C(F)(F)F)c2)c(OC)c1` (centres undefined) had an XC50 of 804 nM.

`COc1ccc2nccc(N(C)CC3(O)CCN(CCc4ccc5c(c4)NC(=O)CS5)CC3)c2n1` yielded an XC50 of 136 nM.

The molecule `N=c1cc(C=Cc2ccc(O)cc2)[nH]c2ccccc12` yielded an XC50 of 993 nM.

With `Cc1ccc(NC(=O)c2ccc(CN3CCCN(CC4CCCCC4)CC3)cc2)cc1C`, the XC50 is 1020 nM.

Take `c1nc(CCNc2nc(Nc3ccc4c(c3)OCO4)nc(NC3CCCC3)n2)c[nH]1`: the XC50 was 1150 nM.

Molecule `Oc1ccc(CCNCCCCCCNCCc2ccc(Cl)c3ccccc23)cc1O` returned an XC50 of 716 nM.

Take `Oc1ccc2[nH]cc(C3CCN(CCCCCCCCCN4CCC(c5c[nH]c6ccc(O)cc56)CC4)CC3)c2c1`: the XC50 was found to be 314 nM.

In turn, `O=C(Nc1ccc(-c2ccccc2)c(OCCN2CCNCC2)c1)c1ccc(-c2ccc(Cl)cc2)cc1` came in with an XC50 of 779 nM.

Consider `Cc1cc(N2CCN(CC3CCN(C)CC3)CC2)nc(Nc2ccc(Cl)cc2)n1`, for which the XC50 came out at 698 nM.

As to `O=C(NCc1ccc(F)cc1)c1cc(Br)cc(N2CCN(c3ccncc3)CC2)c1`, the XC50 turned out to be 1230 nM.

As for `COc1ccc(C2N=C(N)N=C(N)N2c2ccc(Cl)cc2)cc1OC` (centres undefined), the XC50 came to 1000 nM.

For the molecule `CC(=O)Nc1ccc(Cl)c(Cl)c1`, the XC50 is 41.6 nM.

Regarding `Cc1ccccc1Cn1c(CN2CCC(C(=O)NC3CC3)CC2)cc2ccccc21`, the XC50 came out at 477 nM.

In turn, `COc1ccc(CN(C)CCCCc2ccc(NC(=O)COc3cccc4sc5ccccc5c(=O)c34)cc2)cc1OC` displayed an XC50 of 809 nM.

`O=C(NC1CCN(c2ccnc3cc(Cl)ccc23)C1)c1cccc(F)c1` (centres undefined): the XC50 stood at 179 nM.

`O=C(NCCCCNCC(Cc1cccc(O)c1)c1ccccc1)c1ccc(NC(=O)c2ccc(Cl)cc2)cc1` (centres undefined) came in with an XC50 of 1040 nM.

Take `COc1ccc(CCN(C)CCOc2ccc(NC(=O)c3cccc4c(=O)c5cc(SC)ccc5[nH]c34)cc2)cc1OC`: the XC50 amounted to 740 nM.

For `FC(F)(F)c1ccc2[nH]c(-c3cccc(-c4cccc(CN5CCN(c6ccncc6)CC5)c4)c3)nc2c1`, the XC50 stood at 158 nM.

Regarding `Cc1ccc2nc(C)cc(Nc3ccccc3O)c2c1`, the XC50 was 791 nM.

With `COc1ccc(C2=[N+]([O-])c3ccccc3C2=O)cc1`, the XC50 stood at 783 nM.

With `CCOc1cccc(C(=O)Nc2cccc(CN3CCCN(Cc4ccc(O)cc4)CC3)c2)c1`, the XC50 was 824 nM.

As to `CS(=O)(=O)NCCCNCc1cccc(-c2ccc(-c3nc4cc(C(F)(F)F)ccc4[nH]3)s2)c1`, the XC50 came out at 880 nM.

Turning to `CC(C)(C)c1ccc(Cn2nc(C(=O)N3CCN(C(=O)C4CCCO4)CC3)c3ccccc32)cc1` (centres undefined), the XC50 was found to be 1320 nM.

In turn, `O=C1OC2(CN1CC1CCN(Cc3ccc(O)cc3Cl)C1)c1ccccc1-c1ccccc12` (centres undefined) showed an XC50 of 1170 nM.

On to `Cc1nn(-c2ccccc2)c2sc(C(=O)N(CCCN(C)C)c3nc(-c4ccccc4)cs3)cc12`, for which the XC50 was 981 nM.

`Cc1nc2ccc(NC(=O)c3cc(S(=O)(=O)N(C)C)ccc3Cl)cc2s1` came in with an XC50 of 816 nM.

For the molecule `COc1ccc2nc(C)cc(Nc3ccc(Oc4ccc(Cl)c5ccccc45)c(Cl)c3)c2c1`, the XC50 came out at 730 nM.

As to `COc1ccc(Cn2ncc3c4c(N)nc(N)nc4ccc32)cc1OC`, the XC50 was found to be 3.2 nM.

In turn, `CC(C)(C)c1nn(-c2ccccc2)c2[nH]c(=O)c(CNCCc3ccccc3)cc12` returned an XC50 of 866 nM.

The molecule `Clc1ccccc1OCc1ccccn1` came in with an XC50 of 994 nM.

For `Cc1ccc(C)c(-n2c(SCC(=O)Nc3ccc(C(N)=O)cc3)nnc2-c2cccc(Cl)c2)c1`, the XC50 came out at 845 nM.

In turn, `CC1CCN(CCCNc2ccc(C(=O)Nc3ccc(C(F)(F)F)cc3)cc2[N+](=O)[O-])CC1` came in with an XC50 of 340 nM.
